“And” between values parts separate entries of the source, which are not always exact repeats. Identical values can stand only once.
Assays:
HOb cells [1] = assay: Calcium assay (pro-calcifying activity, mineralization) on human primary osteoblastic cells; format: cell-based; conditions: for percentage of mineralization of the HOb cells / increase in calcification relative to the mineralizing condition: 14 days; for percentage of mineralization of the HOb cells: mineralizing conditions; for increase in calcification relative to the mineralizing condition: HOb
Method: For all experiments, a mouse pre-osteoblastic cell line (MC3T3-E1, ATCC) and human primary osteoblastic cells (HOb, Promocell) were used. The mouse pre-osteoblastic cells were cultured in 75 cm^2 flasks, containing 15 mL of α-MEM medium (M4526, SIGMA) and 10% fetal calf serum (FCS), containing 1% Penicillin/Streptomycin antibiotics and 1% glutamine. Similarly, human HOb cells were cultured in 75 cm 2 flasks containing 15 mL of proliferation medium (Human Osteoblast Proliferation Medium, PromoCell). The cells are maintained in the oven at 37° C., with 5% CO2 and 90% humidity. The medium was changed every three days.
MC3T3-E1 cells were seeded in 6-well plates at 63,700 cells/well to be treated in order to extract RNA or for alkaline phosphatase enzymatic activity assay and in 48-well plates for the calcium assay at 5250 cells/well. The HOb cells were seeded at 182,000 cells/well in 6-well plates for the extraction of RNA or for the alkaline phosphatase enzymatic activity assay; at 15,000 cells/well in 48-well plates for the calcium assay; at 10,000 cells/well in 48-well plates for the MTT test or the WST-1 test and at 100,000 cells/well in 6-well plates for the protein extraction or for the fluorescence.
In order to induce the mineralization, the MC3T3-E1 cells were treated with α-MEM medium containing 5% FCS to which 10 mM of β-glycerophosphate and 50 μg/mL of ascorbic acid are added. The HOb cells were treated with the “Osteoblast mineralization medium” (Promocell). […] After filtration, the cells were treated with the respective media (500 μL per well of the 48-well plate and 2 mL per well of the 6-well plate).
The calcification has also been studied on human osteoblastic cells (Hob, PromoCell, Heidelberg, Germany). They are isolated from femoral trabecular bone tissues.

HOb cells [2] = assay: Alkaline phosphatase (ALP) enzymatic activity assay, HOb; format: cell-based, human; conditions: 7 days post-treatment, 30 μM
Source text: (§1) ALP is an enzyme synthesized by osteoblasts. It hydrolyses phosphoric esters which inhibit the mineralization by releasing a hydroxyl group and a phosphate. The osteoblasts produce matrix vesicles, reservoirs of alkaline phosphatases and ions, which, when released into the extracellular medium, would initiate the mineralization of the osteoid tissue by promoting the local concentrations of calcium ions and phosphates. Cells have been seeded in 6-well plates at 63700 cells/well for MC3T3-E1 and at 182000 cells/well for HOb.
(§2) After the PBS rinses, 50 μl of ALP Assay Buffer were added to the wells, the bottom of the wells was scraped and then the 50 μl were taken. A centrifugation for 3 minutes at 13000 G was carried out to remove the insoluble material. In a 96-well plate, 10 μl of each sample to be tested are placed with 70 μl of the ALP Assay buffer and 50 μl of the 5 mM pNPP solution. In parallel, the calibration range was prepared by placing, in the same 96-well plate. The reaction was incubated for 60 min at 25° C., shielded from light. The reaction was stopped by adding 20 μl of the Stop Solution. The optical density was measured at 405 nm.
(§3) After the ALP enzymatic activity assay, a protein assay was performed in order to normalize the results of the ALP assay depending on the number of proteins. […] The optical density was measured at 565 nm to determine the amount of proteins.

HOb cells [3] = assay: Cytotoxicity, WST-1 test; format: cell-based, human; conditions: 30 μM, culture or mineralizing medium, D2, D4, D7, D14
Method: The toxicity of DP2 has also been studied by another cell viability test: WST-1 (a tetrazolium salt). The HOb cells were seeded in 48-well plates (10,000 cells per well), two days later, the cells were treated with DP2 30 μM and the WST-1 test was carried out on D2, D4, D7 and D14 post-treatment.
At the end of the treatment, 100 μl of the diluted WST-1 solution (Roche Diagnostics) was added to each well and the plate is incubated at 37° C. with 5% CO2 for 1 h. The cell proliferation induces an increase in the activity of mitochondrial dehydrogenases, which cleaves the tetrazolium salt into formazan. The amount of formazan dye was quantified by measuring the absorbance of dye at 450 nm (Envision, PerkinElmer). The results are expressed as percentage of viability in comparison to the untreated control condition.
Before determining whether our molecule alters the survival of osteoblastic cells, its cytotoxicity was tested on the HOb cells by the MTT and WST-1 tests. The cells were treated with DP2 at 30 μM with the culture medium (Ctrl) or the mineralizing medium (Min) for 2, 4, 7 and 14 days (D).

MC3T3-E1 cells = assay: Alkaline phosphatase (ALP) enzymatic activity assay, MC3T3-E1; format: cell-based, mouse; conditions: MC3T3-E1, 13 days post-treatment
Source text: as §1, §2, §3

CCCO[C@H]1OC(CO)[C@@H](O[C@@H]2OC(CO)[C@@H](O)C(O)C2NC(C)=O)C(O)C1OC(C)=O (stereo partly drawn) [DP2, n-propyl, 2-O-acetyl-α-D-Glucopyranoside, 4-O-(2-acetamido-2-deoxy-β-D-glucopyranosyl)]
percentage of mineralization of the HOb cells (HOb cells [1]; 30 μM, listed as DP2R0): 181.573±9.155% | percentage of mineralization of the HOb cells (HOb cells [1]; 30 μM, listed as DP2R2): 137.012±52.452% and 204.472% and 159.03±18.719% | increase in calcification relative to the mineralizing condition (HOb cells [1]; 15 μM): 26±10% | increase in calcification relative to the mineralizing condition (HOb cells [1]; 30 μM): 40±15% | increase in calcification relative to the mineralizing condition (HOb cells [1]; 50 μM): 8±17% | mineralization of the HOb cells relative to the mineralizing medium alone (HOb cells [1]; lower concentrations 5, 7.5 and 10 μM (FIG. 4)): decrease in mineralization | ALP enzymatic activity relative to the mineralized medium alone (100%) (HOb cells [2]; listed as DP2R0): 210.494±14.979% | ALP enzymatic activity relative to the mineralized medium alone (100%) (HOb cells [2]; listed as DP2R2): 149.749% | cell viability, WST-1 test (HOb cells [3]): no significant difference | ALP enzymatic activity relative to the mineralized medium alone (100%) (MC3T3-E1 cells; 15 μM): 118.907±10.466% | ALP enzymatic activity relative to the mineralized medium alone (100%) (MC3T3-E1 cells; printed 15 μM (second mention)): 148.833±15.761%

Source: US20240083933A1, “DISACCHARIDES FOR TREATING BONE DISEASES” (UNIVERSITE DE PICARDIE JULES VERNE, priority 2020, published 2024)
